12 molecules from patent EP0800503B1, “NOVEL TRIENOIC RETINOID COMPOUNDS AND METHODS” (LIGAND PHARMACEUTICALS, INC., priority 1994, dated 1996) can be followed below.

Where two headings read alike, the source gives them in different places.

What all share (format): cell-based
For one experiment, the target named is T1, RXRγ (Mus musculus, UniProt P28705).
T1 sequence (P28705 1-463): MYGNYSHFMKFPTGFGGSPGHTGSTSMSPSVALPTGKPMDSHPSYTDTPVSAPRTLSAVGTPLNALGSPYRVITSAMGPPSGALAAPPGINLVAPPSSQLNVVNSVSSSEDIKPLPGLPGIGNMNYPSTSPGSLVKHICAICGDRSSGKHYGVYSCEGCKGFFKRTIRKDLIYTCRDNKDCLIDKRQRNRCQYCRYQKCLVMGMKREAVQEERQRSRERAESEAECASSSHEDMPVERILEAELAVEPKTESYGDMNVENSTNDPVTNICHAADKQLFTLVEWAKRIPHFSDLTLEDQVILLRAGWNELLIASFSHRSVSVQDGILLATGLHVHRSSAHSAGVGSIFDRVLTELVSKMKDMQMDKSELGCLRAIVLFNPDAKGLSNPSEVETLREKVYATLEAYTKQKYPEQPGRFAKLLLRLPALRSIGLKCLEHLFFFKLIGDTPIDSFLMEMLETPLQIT
Briefly: Co-transfection assay. Conditions: read-out: RXRγ Pot.

A further experiment concerns the target T2, RXRβ (Mus musculus, UniProt P28704).
T2 sequence (P28704 1-520): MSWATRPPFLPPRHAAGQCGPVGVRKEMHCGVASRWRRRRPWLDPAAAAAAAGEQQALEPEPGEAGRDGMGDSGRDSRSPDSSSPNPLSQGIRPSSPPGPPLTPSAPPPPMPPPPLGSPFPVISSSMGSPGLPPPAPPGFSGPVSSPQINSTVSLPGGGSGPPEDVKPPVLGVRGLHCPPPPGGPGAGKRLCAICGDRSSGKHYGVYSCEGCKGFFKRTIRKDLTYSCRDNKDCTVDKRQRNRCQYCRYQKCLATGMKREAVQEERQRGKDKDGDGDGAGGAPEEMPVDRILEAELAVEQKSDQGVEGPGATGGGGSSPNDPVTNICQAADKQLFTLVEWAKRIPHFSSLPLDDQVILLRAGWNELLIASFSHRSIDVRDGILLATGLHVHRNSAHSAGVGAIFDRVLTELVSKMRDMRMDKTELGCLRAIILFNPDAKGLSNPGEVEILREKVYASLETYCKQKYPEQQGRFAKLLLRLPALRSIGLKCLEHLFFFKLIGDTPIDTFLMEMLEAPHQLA
Briefly: Co-transfection assay. Conditions: read-out: RXRβ Pot.

The next experiment concerns the target T3, RARγ (Homo sapiens, UniProt P13631).
T3 sequence (P13631 1-454): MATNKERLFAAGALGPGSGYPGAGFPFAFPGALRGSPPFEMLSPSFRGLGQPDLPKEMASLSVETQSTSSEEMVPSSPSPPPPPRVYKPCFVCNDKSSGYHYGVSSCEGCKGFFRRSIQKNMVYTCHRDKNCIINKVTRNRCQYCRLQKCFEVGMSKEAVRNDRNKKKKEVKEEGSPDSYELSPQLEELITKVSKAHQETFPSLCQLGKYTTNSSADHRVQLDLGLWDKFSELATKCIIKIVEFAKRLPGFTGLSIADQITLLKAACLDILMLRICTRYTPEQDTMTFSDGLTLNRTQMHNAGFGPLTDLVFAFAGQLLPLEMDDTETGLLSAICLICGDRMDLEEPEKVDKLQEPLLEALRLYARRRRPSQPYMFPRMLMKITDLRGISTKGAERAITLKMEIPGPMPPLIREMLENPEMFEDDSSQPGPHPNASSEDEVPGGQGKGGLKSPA
Briefly: Co-transfection assay. The following applies: read-out: RARγ Pot.

The next experiment concerns the target T4, RXRα (Homo sapiens, UniProt P19793).
T4 sequence (P19793 1-462): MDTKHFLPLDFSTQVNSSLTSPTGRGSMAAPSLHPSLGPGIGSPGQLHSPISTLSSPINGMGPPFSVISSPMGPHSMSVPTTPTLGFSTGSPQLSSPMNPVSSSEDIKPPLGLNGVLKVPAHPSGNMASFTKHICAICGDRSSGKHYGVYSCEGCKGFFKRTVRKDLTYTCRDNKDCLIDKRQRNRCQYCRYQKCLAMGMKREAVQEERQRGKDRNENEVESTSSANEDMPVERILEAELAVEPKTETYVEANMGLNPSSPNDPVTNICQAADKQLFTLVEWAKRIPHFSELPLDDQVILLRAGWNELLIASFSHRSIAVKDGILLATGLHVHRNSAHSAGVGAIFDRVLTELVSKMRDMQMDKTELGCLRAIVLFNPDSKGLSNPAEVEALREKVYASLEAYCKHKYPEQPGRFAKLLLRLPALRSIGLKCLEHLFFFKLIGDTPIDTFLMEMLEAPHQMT
Kind of experiment: Co-transfection assay. The following applies: read-out: RXRα Pot.

For a further experiment, the target named is T5, RARβ (Homo sapiens, UniProt P10826).
T5 sequence (P10826 1-448 isoform P10826-2): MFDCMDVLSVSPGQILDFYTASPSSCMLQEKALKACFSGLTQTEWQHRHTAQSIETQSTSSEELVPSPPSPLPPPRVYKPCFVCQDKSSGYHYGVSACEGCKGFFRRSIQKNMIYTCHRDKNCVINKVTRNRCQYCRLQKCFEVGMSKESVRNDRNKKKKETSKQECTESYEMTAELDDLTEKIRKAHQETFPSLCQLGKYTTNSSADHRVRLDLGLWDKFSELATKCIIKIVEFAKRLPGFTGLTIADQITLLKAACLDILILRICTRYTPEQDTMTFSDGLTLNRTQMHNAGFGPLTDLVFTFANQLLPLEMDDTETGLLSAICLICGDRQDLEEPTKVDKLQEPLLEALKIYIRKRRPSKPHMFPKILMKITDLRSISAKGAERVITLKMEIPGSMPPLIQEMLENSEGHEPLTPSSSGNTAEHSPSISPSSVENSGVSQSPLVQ
Kind of experiment: Co-transfection assay. Conditions: read-out: RARβ Pot.

The target in another experiment is T6, RARα (Homo sapiens, UniProt P10276).
T6 sequence (P10276 1-462): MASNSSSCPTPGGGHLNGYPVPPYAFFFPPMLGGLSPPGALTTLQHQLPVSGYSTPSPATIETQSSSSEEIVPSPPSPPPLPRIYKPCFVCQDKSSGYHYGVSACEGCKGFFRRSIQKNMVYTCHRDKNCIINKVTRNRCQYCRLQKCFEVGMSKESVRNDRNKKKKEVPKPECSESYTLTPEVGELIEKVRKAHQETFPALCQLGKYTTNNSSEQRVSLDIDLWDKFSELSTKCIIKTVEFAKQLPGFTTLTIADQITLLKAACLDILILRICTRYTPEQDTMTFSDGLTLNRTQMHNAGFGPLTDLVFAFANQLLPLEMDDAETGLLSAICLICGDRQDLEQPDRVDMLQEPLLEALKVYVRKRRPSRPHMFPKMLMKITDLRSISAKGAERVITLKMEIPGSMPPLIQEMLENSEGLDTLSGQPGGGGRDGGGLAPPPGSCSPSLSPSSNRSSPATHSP
Briefly: Co-transfection assay. The following applies: read-out: RARα Pot.

The subject of the next experiment is ME 180 cell line. Kind of experiment: Viability (tetrazolium dye, MTS). The following applies: Homo sapiens, 96 hours, mitochondrial function / viability.
The test system of a further experiment is RPMI 8226 cell line. Briefly: Viability (tetrazolium dye, MTS). Conditions: Homo sapiens, 96 hours, mitochondrial function / viability.
The subject of the next experiment is AML-193 cell line. Kind of experiment: Viability (tetrazolium dye, MTS). The following applies: Homo sapiens, 96 hours, mitochondrial function / viability.
In a further experiment the test system is TPA induction of ODC. Kind of experiment: Ornithine decarboxylase (ODC) assay, inhibition of TPA induction of ODC. Conditions: concentration required to inhibit the TPA induction of ODC by 80 percent.

As to `COC(/C=C/C=C(\C)c1ccc(C(C)(C)C)cc1)=C/C(=O)O` [D, (2E,4E,6E)-3-methoxy-7-(4-t-butylphenyl)octa-2,4,6-trienoic acid, reference compound], the EC50 at RXRγ was above 10000 nM; at RXRβ, above 10000 nM; at RARγ it was above 10000 nM; at RXRα, above 10000 nM; on RARβ, above 10000 nM; at RARα, above 10 µM.

By IC50 is commonly meant the point on the concentration scale where inhibition reaches its midpoint. A low value points to higher potency. In the case of `CC1=C(/C=C/C(C)=C/C=C/C(C)=C/C(=O)O)C(C)(C)CCC1` [ATRA, all-trans retinoic acid, reference compound], the IC50 in the experiment on ME 180 cell line stood at 890 nM; with RPMI 8226 cell line it was 756 nM; in the experiment on AML-193 cell line, 1000 nM.

As to “(2E,4E,6Z)-3-Methyl-7-(3,4-diethyl-6-methylphenyl)nona-2,4,6-trienoic acid [Compound 54]”, the EC50 at RXRγ (CV-1 cells, pRSmRXRγ, CRBPIIFKLUC reporter, 40 hours, potency = EC50) was 78 nM; at RXRβ (CV-1 cells, pRSmRXRβ, CRBPIIFKLUC reporter, 40 hours, potency = EC50), 28 nM; at RARγ (CV-1 cells, pRShRARγ, D-MTV-LUC reporter, 40 hours, potency = EC50) it was 320 nM; at RXRα (CV-1 cells, pRShRXRα, CRBPIIFKLUC reporter, 40 hours, potency = EC50) it was 58 nM; on RARβ (CV-1 cells, pRShRARβ, D-MTV-LUC reporter, 40 hours, potency = EC50), 130 nM; on RARα (CV-1 cells, pRShRARα, D-MTV-LUC reporter, 40 hours, potency = EC50) it was above 10 µM.

For `CCC/C(=C/C=C/C(C)=C/C(=O)O)c1cc(C(C)(C)C)cc(C(C)(C)C)c1` [Compound 28, (2E, 4E, 6Z)-7-(3,5-di-t-butylphenyl)-3-methyldeca-2,4,6-trienoic acid], the EC50 at RXRγ is 50 nM; on RXRβ, 104 nM; at RARγ it was above 10000 nM; on RXRα it was 20 nM; on RARβ, above 10000 nM; on RARα it was above 10 µM.

On to `COc1ccc(/C(C)=C/C=C/C(C)=C/C(=O)O)cc1` [B, (2E,4E,6E)-3-methyl-7-(4-methoxyphenyl)octa-2,4,6-trienoic acid, reference compound], for which the EC50 at RXRγ was above 10000 nM; at RXRβ, above 10000 nM; at RARγ, above 10000 nM; on RXRα, above 10000 nM; at RARβ it was above 10000 nM; on RARα it was above 10 µM.

Consider `CC(/C=C/C=C1\CCOc2c1cc(C(C)(C)C)cc2C(C)(C)C)=C\C(=O)O` [Compound 39, (2E,4E,6E)-6-(6,8,-Di-t-butylchroman-4-ylidene)-3-methylhexa-2,4,6-trienoic acid], for which the EC50 was above 10000 nM on RXRγ; above 10000 nM on RXRβ; 3 nM at RARγ; above 10000 nM at RXRα; 3 nM at RARβ; 0.005 µM at RARα.

In the case of `CC(/C=C/C=C(\C)c1cc(C(F)(F)F)cc(C(F)(F)F)c1)=C\C(=O)O` [Compound 41, (2E, 4E, 6E)-7-(3,5-Di-trifluoromethylphenyl)-3-methylocta-2,4,6-trienoic acid], the EC50 at RXRγ stood at 2180 nM; at RXRβ it was 266 nM; on RARγ, 4 nM; on RXRα, 2010 nM; on RARβ, 1 nM; at RARα, 0.003 µM.

As usually defined, the IC80 is the point of the concentration-response curve where the effect stands at 80%. Read a high IC80 as weaker potency. On to `CCOC(=O)/C=C(C)/C=C/C=C(/C)c1cc(C(C)(C)C)cc(C(C)(C)C)c1` [Compound 8, Ethyl (2E,4E, 6Z)-7-(3,5-di-t-butylphenyl)-3-methylocta-2,4,6-trienoate], for which the 80% effect level in the experiment with TPA induction of ODC (IC80) was put at 152 nM.

As for `C/C(=C/C=C/C(C)=C/C(=O)O)c1cc(C(C)C)cc(C(C)C)c1` [Compound 43, (2E, 4E, 6Z)-7-(3,5-Di-isopropylphenyl)-3-methylocta-2,4,6-trienoic acid], the EC50 was 19 nM at RXRγ; 27 nM on RXRβ; 16 nM at RARγ; 27 nM on RXRα; 22 nM at RARβ; 0.065 µM on RARα.

The molecule `CCOC(=O)/C=C(C)/C=C/C=C(\C)c1cc(C(C)(C)C)cc(C(C)(C)C)c1` [Compound 7, Ethyl (2E, 4E, 6E)-7-(3,5-di-t-butylphenyl)-3-methylocta-2,4,6-trienoate] gave an IC80 with TPA induction of ODC of 4.73 nM.

In the case of `COc1c(C(C)(C)C)cc(/C(C)=C/C=C/C(C)=C/C(=O)O)cc1C(C)(C)C` [Compound 47, (2E, 4E, 6E) -3-Methyl-7-(3,5-di-t-butyl-4-methoxyphenyl)octa-2,4,6-trienoic acid], the EC50 on RXRγ was above 10000 nM; on RXRβ, above 10000 nM; at RARγ it was 1 nM; at RXRα, above 10000 nM; on RARβ, 1 nM; at RARα, above 10 µM.

For `COc1cc(C)c(/C=C/C=C/C=C(\C)C(=O)O)c(C)c1C` [C, (2E,4E,6E)-2-methyl-7-(2,3,6-trimethyl-4-methoxyphenyl)hepta-2,4,6-trienoic acid, reference compound], the EC50 was above 10000 nM on RXRγ; above 10000 nM at RXRβ; above 10000 nM on RARγ; above 10000 nM on RXRα; above 10000 nM on RARβ; above 10 µM at RARα.
